The values below come from patent US6476026B1, “Compounds and compositions as protease inhibitors” (Axys Pharmaceuticals, Inc., priority 1999, dated 2002).

As usually defined, the melting point is the temperature of the solid-liquid transition. The compound `N#CCNC(=O)[C@H]1CCCN1C(=O)OCc1ccccc1` [Compound 50, benzyl 2R-cyanomethylcarbamoylpyrrolidine-1-carboxylate] showed a melting point of 135 to 136 °C.
